This note sets out measurements from US8569302B2, “Inhibitors of flaviviridae viruses” (Gilead Sciences, Inc., priority 2009, dated 2013).

The subject of the first experiment is human hepatoma Huh-7 cell line harboring a HCV replicon. The experiment in a line: HCV replicon assay (inhibition of viral replication, luciferase readout). The experiment is classed as cell-based. As to conditions: Hepatitis C virus, 72 h, Huh-7 HCV replicon cells, 3 days incubation. The method in brief:
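Huh-7 replicon cells were exposed to 10-point 3-fold compound dilutions (0.44% DMSO) for 3 days at 37 °C. Replicon replication was read by Dual-Glo luciferase, with background from protease-inhibitor wells subtracted, and viability by calcein AM. EC50/CC50 came from a Hill-equation fit versus DMSO controls.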
`Cn1nnnc1S[C@H]1CC[C@H](N(c2cc(C#CC(C)(C)C)sc2C(=O)O)C(=O)[C@H]2CC[C@H](C)CC2)CC1` [Compound 101, 5-(3,3-Dimethylbut-1-ynyl)-3-(4-methyl-N-(4-(1-methyl-1H-tetrazol-5-ylthio)cyclohexyl)cyclohexanecarboxamido)thiophene-2-carboxylic acid]: at 2 µM the inhibition was 100%. Take `Cc1nnc(S[C@H]2CC[C@H](N(c3cc(C#CC(C)(C)C)sc3C(=O)O)C(=O)[C@H]3CC[C@H](C)CC3)CC2)s1` [Compound 102, 5-(3,3-Dimethylbut-1-ynyl)-3-(4-methyl-N-(4-(5-methyl-1,3,4-thiadiazol-2-ylthio)cyclohexyl)cyclohexanecarboxamido)thiophene-2-carboxylic acid]: the inhibition at 2 µM came to 99.9%. On the same count and under the same terms, next, `Cc1nnc(S[C@H]2CC[C@@H](N(c3cc(C#CC(C)(C)C)sc3C(=O)O)C(=O)[C@H]3CC[C@H](C)CC3)CC2)s1` [Compound 103, 5-(3,3-Dimethylbut-1-ynyl)-3-(4-methyl-N-(4-(5-methyl-1,3,4-thiadiazol-2-ylthio)cyclohexyl)cyclohexanecarboxamido)thiophene-2-carboxylic acid]: 98.3%; `Cn1nnnc1S[C@H]1CC[C@@H](N(c2cc(C#CC(C)(C)C)sc2C(=O)O)C(=O)[C@H]2CC[C@H](C)CC2)CC1` [Compound 104, 5-(3,3-Dimethylbut-1-ynyl)-3-(4-methyl-N-(4-(1-methyl-1H-tetrazol-5-ylthio)cyclohexyl)cyclohexanecarboxamido)thiophene-2-carboxylic acid]: 98.7%. The same measure, in the same setting: then `CC(C)(C)C#Cc1cc(N(C(=O)[C@H]2CC[C@H](C)CC2)[C@H]2CC[C@@H](Sc3nncs3)CC2)c(C(=O)O)s1` [Compound 105, 3-(N-(4-(1,3,4-Thiadiazol-2-ylthio)cyclohexyl)-4-methylcyclohexanecarboxamido)-5-(3,3-dimethylbut-1-ynyl)thiophene-2-carboxylic acid], with 99.9%; and `CC(C)(C)C#Cc1cc(N(C(=O)[C@H]2CC[C@H](C)CC2)[C@H]2CC[C@H](Sc3nccs3)CC2)c(C(=O)O)s1` [Compound 106, 5-(3,3-Dimethylbut-1-ynyl)-3-(4-methyl-N-(4-(thiazol-2-ylthio)cyclohexyl)cyclohexanecarboxamido)thiophene-2-carboxylic acid], with 99.9%; and `CC(C)(C)C#Cc1cc(N(C(=O)[C@H]2CC[C@H](C)CC2)[C@H]2CC[C@@H](Sc3nccs3)CC2)c(C(=O)O)s1` [Compound 107, 5-(3,3-Dimethylbut-1-ynyl)-3-(4-methyl-N-(4-(thiazol-2-ylthio)cyclohexyl)cyclohexanecarboxamido)thiophene-2-carboxylic acid], with 98.9%. Same read-out and setting: next, `CC(C)(C)C#Cc1cc(N(C(=O)[C@H]2CC[C@H](C)CC2)[C@H]2CC[C@@H](Sc3ncccn3)CC2)c(C(=O)O)s1` [Compound 108, 5-(3,3-Dimethylbut-1-ynyl)-3-(4-methyl-N-(4-(pyrimidin-2-ylthio)cyclohexyl)cyclohexanecarboxamido)thiophene-2-carboxylic acid]: 99.3%; `CC(C)(C)C#Cc1cc(N(C(=O)[C@H]2CC[C@H](C)CC2)[C@H]2CC[C@H](S(=O)(=O)C3CCOCC3)CC2)c(C(=O)O)s1` [Compound 109, 5-(3,3-Dimethylbut-1-ynyl)-3-(4-methyl-N-(4-(tetrahydro-2H-pyran-4-ylsulfonyl)cyclohexyl)cyclohexanecarboxamido)thiophene-2-carboxylic acid]: 99.9%; `Cn1nnnc1S(=O)(=O)[C@H]1CC[C@H](N(c2cc(C#CC(C)(C)C)sc2C(=O)O)C(=O)[C@H]2CC[C@H](C)CC2)CC1` [Compound 110, 5-(3,3-Dimethylbut-1-ynyl)-3-(4-methyl-N-(4-(1-methyl-1H-tetrazol-5-ylsulfonyl)cyclohexyl)cyclohexanecarboxamido)thiophene-2-carboxylic acid]: 100%. `Cn1nnnc1[S+]([O-])[C@H]1CC[C@H](N(c2cc(C#CC(C)(C)C)sc2C(=O)O)C(=O)[C@H]2CC[C@H](C)CC2)CC1` (stereo partly drawn) [Compound 111, 5-(3,3-Dimethylbut-1-ynyl)-3-((1r,4S)-4-methyl-N-(4-((R)-1-methyl-1H-tetrazol-5-ylsulfinyl)cyclohexyl)cyclohexanecarboxamido)thiophene-2-carboxylic acid] displayed an inhibition at 2 µM of 99.8%. In turn, `CC1CCC(C(=O)N(CCOc2cccnc2)c2cc(C#CC(C)(C)C)sc2C(=O)O)CC1` (stereo not shown) [Compound 138] had an inhibition at 2 µM of 99.7%. `CC1CCC(C(=O)N(CCOc2ccccn2)c2cc(C#CC(C)(C)C)sc2C(=O)O)CC1` (stereo not shown) [Compound 139, 5-(3,3-dimethyl-but-1-ynyl)-3-{(4-methyl-cyclohexanecarbonyl)-[3-(pyridin-2-yloxy)-ethyl]-amino}-thiophene-2-carboxylic acid] displayed an inhibition at 2 µM of 96.4%. Same read-out and setting: then `C[C@@H](CCOc1cncnc1)N(c1cc(C#CC(C)(C)C)sc1C(=O)O)C(=O)[C@H]1CC[C@H](C)CC1` [Compound 143, 5-(3,3-dimethyl-but-1-ynyl)-3-{(trans-4-methyl-cyclohexanecarbonyl)-[1-(S)-methyl-3-(pyrimidin-5-yloxy)-propyl]-amino}-thiophene-2-carboxylic acid], with 100%. The same measure, in the same setting: then `CCOc1cc(OCC[C@H](C)N(c2cc(C#CC(C)(C)C)sc2C(=O)O)C(=O)[C@H]2CC[C@H](C)CC2)c2ccc(OC)c(C)c2n1` [Compound 144, 5-(3,3-dimethyl-but-1-ynyl)-3-[[3-(2-ethoxy-7-methoxy-8-methyl-quinolin-4-yloxy)-1-(S)-methyl-propyl]-(4-methyl-cyclohexanecarbonyl)-amino]-thiophene-2-carboxylic acid], with 95.4%. Same read-out and setting: next, `CC(C)(C)C#Cc1cc(N(C(=O)[C@H]2CC[C@H](C)CC2)[C@H]2C[C@@H](Oc3ccccn3)C2)c(C(=O)O)s1` [Compound 146, 5-(3,3-Dimethylbut-1-ynyl)-3-(4-methyl-N-(3-(pyridin-2-yloxy)cyclobutyl)cyclohexanecarboxamido)thiophene-2-carboxylic acid]: 99.2%. The molecule `CC(C)(C)C#Cc1cc(N(C(=O)[C@H]2CC[C@H](C)CC2)[C@H]2CC[C@H](Oc3cc[nH]c(=O)n3)CC2)c(C(=O)O)s1` [Compound 147, 5-(3,3-Dimethyl-but-1-ynyl)-3-{(trans-4-methyl-cyclohexanecarbonyl)-[trans-4-(2-oxo-1,2-dihydro-pyrimidin-4-yloxy)-cyclohexyl]-amino}-thiophene-2-carboxylic acid] gave an inhibition at 2 µM of 99.9%.

With `CCc1cnc(O[C@H]2CC[C@H](N(c3cc(C#CC(C)(C)C)sc3C(=O)O)C(=O)[C@H]3CC[C@H](C)CC3)CC2)nc1` [Compound 148, 5-(3,3-Dimethylbut-1-ynyl)-3-(N-(4-(5-ethylpyrimidin-2-yloxy)cyclohexyl)-4-methylcyclohexanecarboxamido)thiophene-2-carboxylic acid], testing at 2 µM gave an inhibition of 96.6%.

The same experiment, now with this note: Huh-7 HCV replicon cells, 3 days incubation.
Take `CC(C)(C)C#Cc1cc(N(C(=O)[C@H]2CC[C@H](C)CC2)[C@H]2C[C@@H](Oc3ccc[n+]([O-])c3)C2)c(C(=O)O)s1` [Compound 145, 5-(3,3-Dimethyl-but-1-ynyl)-3-{(trans-4-methyl-cyclohexanecarbonyl)-[cis-3-(pyridin-3-yloxy-N-oxide)-cyclobutyl]-amino}-thiophene-2-carboxylic acid]: the “% inhibition at 2μM” value came out at 99.5%.
